Measured values from PMC10819888, “Benzimidazole-Based Derivatives as Apoptotic Antiproliferative Agents: Design, Synthesis, Docking, and Mechanistic Studies” (Molecules, 2024).

Tests used:
Test in all cases: NCI-60 one-dose assay
Format in all cases: cell-based
SNB-75 = details: Homo sapiens, SNB-75 (CNS cancer), read-out: Cell Inhibition Percent
Description: (§1) The final compounds were submitted to the National Cancer Institute, Bethesda, USA, for screening in vitro for anti-cancer. […] compounds, 4a–j, 5, and 6, were selected according to the Development Therapeutic Program (DTP) protocol. The selected compounds were evaluated for their in vitro cytotoxic activity against a panel of sixty cancer cell lines (NCI-60 cell line panel) derived from six cell lines panel of leukemia, nine cell lines of lung cancer, six cell lines of CNS cancer, seven cell lines of colon cancer, eight cell lines of melanoma, six cell lines of ovarian cancer, eight cell lines of renal cancer, two cell lines of prostate cancer, and eight cell lines of breast cancer, representing the full nine human systems as leukemia, melanoma, and cancers of the lung, colon, brain, breast, ovary, kidney, and prostate.
(§2) The selected compounds 4a–j, 5, and 6 were tested at a single concentration of 10 µM. The screening results for the selected compounds are illustrated in Table 1.
(§3) The NCI anti-cancer screening methodology has been described in detail elsewhere (http://www.dtp.nci.nih.gov, accessed on 20 February 2021). Following the Drug Evaluation Branch protocol, National Cancer Institute, Bethesda, USA, a primary anti-cancer assay was performed on approximately 60 human tumor cell line panels derived from nine neoplastic diseases.

UO-31 = details: Homo sapiens, UO-31 (Renal Cancer), read-out: Cell Inhibition Percent
Description: as §1, §2, §3

LOX IMVI = details: Homo sapiens, LOX IMVI (Melanoma), read-out: Cell Inhibition Percent
Description: as §1, §2, §3

SN12C = details: Homo sapiens, SN12C (Renal Cancer), read-out: Cell Inhibition Percent
Description: as §1, §2, §3

MDA-MB-468 = details: Homo sapiens, MDA-MB-468 (Breast Cancer), read-out: Cell Inhibition Percent
Description: as §1, §2, §3

SF-295 = details: Homo sapiens, SF-295 (CNS cancer), read-out: Cell Inhibition Percent
Description: as §1, §2, §3

SK-OV-3 = details: Homo sapiens, SK-OV-3 (ovarian cancer), read-out: Cell Inhibition Percent
Description: as §1, §2, §3

A498 = details: Homo sapiens, A498 (Renal Cancer), read-out: Cell Inhibition Percent
Description: as §1, §2, §3

SNB-19 = details: Homo sapiens, SNB-19 (CNS cancer), read-out: Cell Inhibition Percent
Description: as §1, §2, §3

UACC-62 = details: Homo sapiens, UACC-62 (Melanoma), read-out: Cell Inhibition Percent
Description: as §1, §2, §3

A549/ATCC = details: Homo sapiens, A549/ATCC (Non-Small Cell Lung Cancer), read-out: Cell Inhibition Percent
Description: as §1, §2, §3

NCI-H322M = details: Homo sapiens, NCI-H322M (Non-Small Cell Lung Cancer), read-out: Cell Inhibition Percent
Description: as §1, §2, §3

CCRF-CEM = details: Homo sapiens, CCRF-CEM (Leukemia), read-out: Cell Inhibition Percent
Description: as §1, §2, §3

NCI-H226 = details: Homo sapiens, NCI-H226 (Non-Small Cell Lung Cancer), read-out: Cell Inhibition Percent
Description: as §1, §2, §3

T-47D = details: Homo sapiens, T47D, T-47D (Breast Cancer), read-out: Cell Inhibition Percent
Description: as §1, §2, §3

OVCAR-8 = details: Homo sapiens, OVCAR-8 (ovarian cancer), read-out: Cell Inhibition Percent
Description: as §1, §2, §3

K-562 = details: Homo sapiens, K562, K-562 (Leukemia), read-out: Cell Inhibition Percent
Description: as §1, §2, §3

OVCAR-4 = details: Homo sapiens, OVCAR-4 (ovarian cancer), read-out: Cell Inhibition Percent
Description: as §1, §2, §3

HS 578T = details: Homo sapiens, HS 578T (Breast Cancer), read-out: Cell Inhibition Percent
Description: as §1, §2, §3

CAKI-1 = details: Homo sapiens, CAKI-1 (Renal Cancer), read-out: Cell Inhibition Percent
Description: as §1, §2, §3

OVCAR-3 = details: Homo sapiens, OVCAR-3 (ovarian cancer), read-out: Cell Inhibition Percent
Description: as §1, §2, §3

NCI-H23 = details: Homo sapiens, NCI-H23 (Non-Small Cell Lung Cancer), read-out: Cell Inhibition Percent
Description: as §1, §2, §3

HCC-2998 = details: Homo sapiens, HCC-2998 (Colon Cancer), read-out: Cell Inhibition Percent
Description: as §1, §2, §3

KM12 = details: Homo sapiens, KM12 (Colon Cancer), read-out: Cell Inhibition Percent
Description: as §1, §2, §3

TK-10 = details: Homo sapiens, TK-10 (Renal Cancer), read-out: Cell Inhibition Percent
Description: as §1, §2, §3

HT29 = details: Homo sapiens, HT-29, HT29 (Colon Cancer), read-out: Cell Inhibition Percent
Description: as §1, §2, §3

COLO 205 = details: Homo sapiens, COLO 205 (Colon Cancer), read-out: Cell Inhibition Percent
Description: as §1, §2, §3

SK-MEL-5 = details: Homo sapiens, SK-MEL-5 (Melanoma), read-out: Cell Inhibition Percent
Description: as §1, §2, §3

BT-549 = details: Homo sapiens, BT-549 (Breast Cancer), read-out: Cell Inhibition Percent
Description: as §1, §2, §3

ACHN = details: Homo sapiens, ACHN (Renal Cancer), read-out: Cell Inhibition Percent
Description: as §1, §2, §3

HCT-15 = details: Homo sapiens, HCT-15 (Colon Cancer), read-out: Cell Inhibition Percent
Description: as §1, §2, §3

Structure (SMILES) | inhibition at 10 µM (SNB-75) | inhibition at 10 µM (UO-31) | inhibition at 10 µM (LOX IMVI) | inhibition at 10 µM (SN12C) | inhibition at 10 µM (MDA-MB-468) | inhibition at 10 µM (SF-295) | inhibition at 10 µM (SK-OV-3) | inhibition at 10 µM (A498) | inhibition at 10 µM (SNB-19) | inhibition at 10 µM (UACC-62) | inhibition at 10 µM (A549/ATCC) | inhibition at 10 µM (NCI-H322M) | inhibition at 10 µM (CCRF-CEM) | inhibition at 10 µM (NCI-H226) | inhibition at 10 µM (T-47D) | inhibition at 10 µM (OVCAR-8) | inhibition at 10 µM (K-562) | inhibition at 10 µM (OVCAR-4) | inhibition at 10 µM (HS 578T) | inhibition at 10 µM (CAKI-1) | other results
COc1ccc(C=NNC(=O)c2ccc3[nH]c(-c4ccc(Cl)cc4)nc3c2)cc1 [Compound 4g, N′-(4-Methoxybenzylidene)-2-(4-chlorophenyl)-1H-benzimidazole-5-carbohydrazide] | 8.15% | 18.1% | 99.1% | 93.8% | 75.8% | 139% | 27.7% | 33.4% | 75.8% | 69.1% | 88% | 44.1% | 34.7% | 26.2% | 76.7% | 68.7% | 68.1% | 131% | 67.7% | 39.5% | inhibition at 10 µM (OVCAR-3): 79.9%; inhibition at 10 µM (NCI-H23): 58.5%; inhibition at 10 µM (HCC-2998): 48.9%; inhibition at 10 µM (KM12): 82.7%; inhibition at 10 µM (TK-10): 60.9%; inhibition at 10 µM (HT29): 78.1%; inhibition at 10 µM (COLO 205): 77.1%; inhibition at 10 µM (SK-MEL-5): 66.3%; inhibition at 10 µM (BT-549): 43.1%; inhibition at 10 µM (ACHN): 78.1%; inhibition at 10 µM (HCT-15): 42.5%
O=C(NN=Cc1ccc(F)cc1)c1ccc2[nH]c(-c3ccc(Cl)cc3)nc2c1 [Compound 4d, N′-(4-Fluorobenzylidene)-2-(4-chlorophenyl)-1H-benzimidazole-5-carbohydrazide] | 2.77% | 24.6% | 66% | 58.8% | 23.9% | 68.7% | 1.74% | 27.1% | 39.6% | 11.8% | 82.2% | 22.4% | 78.6% | 6.86% | 40.6% | 48.7% | 61.2% | 63.6% | 30% | 15.1% | inhibition at 10 µM (OVCAR-3): 29.3%; inhibition at 10 µM (NCI-H23): 38.6%; inhibition at 10 µM (HCC-2998): 21%; inhibition at 10 µM (KM12): 35.1%; inhibition at 10 µM (TK-10): 5.63%; inhibition at 10 µM (HT29): 95.7%; inhibition at 10 µM (COLO 205): 58.7%; inhibition at 10 µM (SK-MEL-5): 11%; inhibition at 10 µM (BT-549): 0%; inhibition at 10 µM (ACHN): 64.3%; inhibition at 10 µM (HCT-15): 33.2%
O=C(NN=Cc1ccc(Cl)cc1)c1ccc2[nH]c(-c3ccc(Cl)cc3)nc2c1 [Compound 4e, N′-(4-Chlorobenzylidene)-2-(4-chlorophenyl)-1H-benzimidazole-5-carbohydrazide] | 1.6% | 78.4% | 156% | 137% | 144% | 149% | 50.2% | 43.9% | 95.7% | 83.2% | 127% | 72.3% | 84.5% | 0.67% | 113% | 85.8% | 91.3% | 118% | 67% | 38.8% | inhibition at 10 µM (OVCAR-3): 153%; inhibition at 10 µM (NCI-H23): 100%; inhibition at 10 µM (HCC-2998): 96.3%; inhibition at 10 µM (KM12): 129%; inhibition at 10 µM (TK-10): 104%; inhibition at 10 µM (HT29): 98.3%; inhibition at 10 µM (COLO 205): 124%; inhibition at 10 µM (SK-MEL-5): 63.8%; inhibition at 10 µM (BT-549): 0%; inhibition at 10 µM (ACHN): 120%; inhibition at 10 µM (HCT-15): 95.3%
